This is an account of results in publication PMC2905049 (Bioorganic & medicinal chemistry, 2010).

Broadly, the IC50 is the concentration that gives 50% inhibition. Read a high IC50 as lower potency. As usually defined, the EC50 is the concentration at which the effect is half-maximal.

The test system of one experiment is HIV-1NL4-3. The experiment can be described thus: Anti-HIV replication assay against HIV-1NL4-3 in MT-4 cell line. It counts as cell-based. The following applies: for EC50 (μM): HIV-1NL4-3, MT-4 cell line, Table 3 screening, 9 as control; for EC50: Human immunodeficiency virus 1, MT4, read-out: HIV-1NL4-3 EC50 (μM).
In a further experiment the test system is HIV-1IIIB. The experiment can be described thus: Anti-HIV replication assay against wild-type HIV-1IIIB in MT-2 cell line. The following applies: for EC50 (μM): HIV-1IIIB replication in MT-2 cell line; for EC50: Human immunodeficiency virus 1, MT2. It counts as cell-based.
The subject of another experiment is MT-2 cell line. The experiment is described as follows: Compound toxicity by XTT in mock-infected MT-2 cells. The following applies: Homo sapiens, MT2. It counts as cell-based.
Experiment [1] relates to RTMDR (multi-RT inhibitor-resistant strain). The experiment is described as follows: Anti-HIV replication assay against RTMDR strain in MT-4 cell line. It counts as cell-based, HIV-1. The conditions noted are these: Human immunodeficiency virus 1, MT4, read-out: RTMDR EC50 (μM).

SMILES strings stand for the structures.

In the case of `CCc1cc(=O)c2ccc3c(c2o1)[C@@H](OC(=O)[C@@]12CC[C@@](C)(C(=O)O1)C2(C)C)[C@@H](OC(=O)[C@@]12CC[C@@](C)(C(=O)O1)C2(C)C)C(C)(C)O3` [Compound 3, reference compound], the “HIV-1NL4-3 TI” value in the experiment with HIV-1NL4-3 (therapeutic index IC50/EC50, MT-4, Table 2 screening) came out at 116.

With `Cc1cc(=O)oc2c(CSC(=O)[C@@]34CC[C@@](C)(C(=O)O3)C4(C)C)c(OC(C)C)ccc12` [Compound 13], the “EC50 (μM)” value in the experiment on HIV-1NL4-3 is listed as “moderate activity”.

With `CCOc1c(C(C)=O)ccc2c1[C@@H](OC(=O)[C@@]13CC[C@@](C)(C(=O)O1)C3(C)C)[C@@H](OC(=O)[C@@]13CC[C@@](C)(C(=O)O1)C3(C)C)C(C)(C)O2` [Compound 5], the “EC50 (μM)” value in the experiment on HIV-1IIIB (Table 1) was “moderate activity”.

The compound `Cc1cn([C@H]2C[C@H](N=[N+]=[N-])[C@@H](CO)O2)c(=O)[nH]c1=O` [AZT, zidovudine, reference compound] returned an IC50 with MT-2 cell line of 1870 µM. The compound further returned a TI in the experiment on HIV-1IIIB (therapeutic index IC50/EC50, HIV-1IIIB, MT-2, Table 1) of 42700.

As to `Cc1cc(=O)oc2c([C@H](COC(=O)[C@@]34CC[C@@](C)(C(=O)O3)C4(C)C)OC(=O)[C@@]34CC[C@@](C)(C(=O)O3)C4(C)C)c(OC(C)C)ccc12` [Compound 7, 8-(1R,2-Di-O-(−)-camphanoyloxyethyl)-7-isopropoxy-4-methyl-2H-chromen-2-one], the concentration giving a half-maximal response (EC50) (in the experiment on HIV-1NL4-3; in experiment [1]; in the experiment with HIV-1IIIB) was greater than 20 µM throughout.

In the case of `COc1ccc(N(Cc2c(OC(C)C)ccc3c(C)cc(=O)oc23)C(=O)[C@@]23CC[C@@](C)(C(=O)O2)C3(C)C)cc1` [Compound 16, 8-[(N-4-Methoxyphenyl-N-(−)-camphanoyl)aminomethyl]-7-isopropoxy-4-methyl-2H-chromen-2-one], in the experiment with HIV-1NL4-3, the “EC50 (μM)” value is “moderate activity”.

Consider `Cc1cc(=O)oc2cc(OC(C)(C)[C@@H](COC(=O)[C@@]34CC[C@@](C)(C(=O)O3)C4(C)C)OC(=O)[C@@]34CC[C@@](C)(C(=O)O3)C4(C)C)ccc12` [Compound 6, 7-(2R,3-Di-O-(−)-camphanoyloxy-1,1-dimethylpropoxy)-4-methyl-2H-chromen-2-one], for which the EC50 (in the experiment with HIV-1NL4-3; in experiment [1]; with HIV-1IIIB) was greater than 20 µM each time.

For the compound `CC(=O)c1ccc2c(c1C)[C@@H](OC(=O)[C@@]13CC[C@@](C)(C(=O)O1)C3(C)C)[C@@H](OC(=O)[C@@]13CC[C@@](C)(C(=O)O1)C3(C)C)C(C)(C)O2` [Compound 4, 3R,4R-Dicamphanoyloxy-2,2,5-trimethyl-6-acetyl-2H-chroman], the “EC50 (μM)” value in the experiment on HIV-1IIIB (Table 1) is “did not show anti-HIV activity”. In the experiment on HIV-1IIIB, the EC50 is greater than 20 µM.

Turning to `Cc1cc(=O)oc2c([C@H](C)OC(=O)[C@@]34CC[C@@](C)(C(=O)O3)C4(C)C)c(OC(C)C)ccc12` [Compound 8], the EC50 (in the experiment with HIV-1NL4-3; in experiment [1]; with HIV-1IIIB) was greater than 20 µM throughout. In addition, the “EC50 (μM)” value in the experiment on HIV-1IIIB (Table 1) is recorded as “lost anti-HIV activity completely”.
